Measured values as given in patent US9440957B2, “Compounds and compositions for modulating EGFR Activity” (Novartis AG, priority 2012, dated 2016).
Where two headings read alike, the source gives them in different places.

Columns and labels:
EGFR(L858R/T790M) = target: T1, EGFR(L858R/T790M) (Homo sapiens, UniProt P00533, L858R/T790M); assay: EGFR biochemical assay (HTRF), IC50 determinations
T1 construct: purchased from Carna (GST-a.a. 669-1210)
Procedure, shortened: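 Two formats were run: compound preincubated at room temperature with enzyme and biotin-TK peptide before ATP starts the reaction, or no preincubation with enzyme added last. Reactions ran 60 min at room temperature and were stopped with EDTA. Phosphopeptide was read by HTRF (PT66K/SAXL, 1 h).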

H1975 (EGFR L858/T790M) = H1975 (EGFR L858/T790M) (Homo sapiens, UniProt P00533, L858R/T790M); assay: EGFR target modulation in H1975 cell line (phospho-EGFR Y1173 ELISA); format: cell-based
Procedure, shortened: (§1)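 pY1173 was measured by sandwich ELISA with anti-EGFR capture and chemiluminescent read-out. Before lysis, each cell line (HCC827, H1975, H3255) was treated with compound for 3 hours. IC50 derived by non-linear fit, normalised to EGF-stimulated controls as maximum.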

H3255 (EGFR L858R) = H3255 (EGFR L858R) (Homo sapiens, UniProt P00533, L858R); assay: EGFR target modulation in H3255 cell line (phospho-EGFR Y1173 ELISA); format: cell-based
Sequence of H3255 (EGFR L858R) (P00533 25-1210 L858R): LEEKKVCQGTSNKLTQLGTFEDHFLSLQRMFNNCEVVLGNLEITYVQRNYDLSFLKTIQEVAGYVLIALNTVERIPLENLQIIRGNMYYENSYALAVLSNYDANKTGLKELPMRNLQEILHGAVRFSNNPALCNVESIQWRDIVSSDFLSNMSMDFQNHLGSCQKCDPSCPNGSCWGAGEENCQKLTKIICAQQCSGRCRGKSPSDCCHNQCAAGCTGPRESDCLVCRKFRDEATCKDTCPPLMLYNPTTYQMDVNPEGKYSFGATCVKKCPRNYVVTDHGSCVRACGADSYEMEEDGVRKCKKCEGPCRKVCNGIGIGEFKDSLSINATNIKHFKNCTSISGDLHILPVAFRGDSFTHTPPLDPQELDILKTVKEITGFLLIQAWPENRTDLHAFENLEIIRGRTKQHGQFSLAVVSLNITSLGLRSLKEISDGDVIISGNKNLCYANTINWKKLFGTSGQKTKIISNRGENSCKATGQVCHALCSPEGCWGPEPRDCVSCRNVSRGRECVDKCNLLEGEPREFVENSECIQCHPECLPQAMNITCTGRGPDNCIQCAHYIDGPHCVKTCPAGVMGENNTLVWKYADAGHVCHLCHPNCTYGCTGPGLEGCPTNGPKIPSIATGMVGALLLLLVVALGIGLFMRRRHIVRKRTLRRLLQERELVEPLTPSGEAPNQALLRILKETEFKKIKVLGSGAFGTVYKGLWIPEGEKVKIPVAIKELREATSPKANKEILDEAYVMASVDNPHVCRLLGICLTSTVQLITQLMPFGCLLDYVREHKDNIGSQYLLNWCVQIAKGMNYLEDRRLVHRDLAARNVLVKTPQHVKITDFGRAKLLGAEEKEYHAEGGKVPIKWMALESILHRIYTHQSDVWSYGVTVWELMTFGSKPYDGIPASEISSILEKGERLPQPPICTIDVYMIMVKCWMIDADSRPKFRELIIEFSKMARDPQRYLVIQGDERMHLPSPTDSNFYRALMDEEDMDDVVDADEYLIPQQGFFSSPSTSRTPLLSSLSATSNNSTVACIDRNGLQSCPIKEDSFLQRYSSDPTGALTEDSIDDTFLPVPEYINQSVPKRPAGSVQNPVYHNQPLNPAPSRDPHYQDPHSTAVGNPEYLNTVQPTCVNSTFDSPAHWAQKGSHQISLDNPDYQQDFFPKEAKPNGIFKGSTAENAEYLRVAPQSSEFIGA
Procedure, shortened: as §1

HaCaT (EGFR WT) = HaCaT (EGFR WT) (Homo sapiens, UniProt P00533); assay: EGFR target modulation in HaCaT (EGFR-WT) cell line (phospho-EGFR Y1173 ELISA); format: cell-based; conditions: value in parentheses
Experimental: EGFR Target Modulation in HaCaT (EGFR-WT) Cell Line Tissue Culture. […] The serial diluted compounds were transferred to the plate containing cells by using a 50 nl Pin Head device (Perkin Elmer) and the cells were placed back in the incubator for 3 hours. […] Phospho-EGFR ([…]) ELISA. Solid white high-binding ELISA plates (Greiner #781074) were coated with 5 ug/ml anti-EGFR capture antibody (R&D Systems #AF231) overnight in 50 mM carbonate/bicarbonate pH 9.5 buffer. […] Wash steps were carried out with a Bio-Tek ELx405 SelectTM using 4 cycles of 100 ul TBS-T (20 mM Tris, 137 mM NaCl, 0.05% Tween-20) per well. […] Lysis was allowed to occur for 20 minutes on ice. A 25 ul aliquot was added to each well of the blocked ELISA plate and incubated overnight at 4° C. with gentle shaking. […] After washing, 1:2,000 anti-rabbit-HRP (Cell Signaling #7074) in 0.2% BSA/TBS-T was added and incubated for 1 hour at room temperature. Chemiluminescent detection was carried out with SuperSignal ELISA Pico substrate (ThermoScientific #37069). Signal was read on EnVision plate reader using built-in UltraLUM setting. Data Analysis. Control cells treated with EGF were set to 100% maximum response. […] With these parameters, the IC50's for each compound in each cell line was calculated using non-linear curve fitting analysis.

[1] = target: human EGFR WT (NIH/3T3 cells, EGF-induced) (Homo sapiens, UniProt P00533); assay: EGFR target modulation in engineered NIH/3T3 cell lines (phospho-EGFR Y1068 AlphaLISA), EGFR WT; format: cell-based; conditions: engineered NIH/3T3 cells, read-out: NIH3T3 IC50 (μM) EGFR (WT)
Procedure, shortened: (§2)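 Engineered NIH/3T3 cells expressing EGFR variants treated 3 h at 37 °C with 12-point 1:3 compound series (top stock 10 μM); only WT cells stimulated with 50 ng/ml EGF for 5 min before lysis. Phospho-Y1068 measured by AlphaLISA with total-EGFR antibody; IC50 from non-linear fitting.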

[2] = target: human EGFR L858R (NIH/3T3 cells) (Homo sapiens, UniProt P00533, L858R); assay: EGFR target modulation in engineered NIH/3T3 cell lines (phospho-EGFR Y1068 AlphaLISA), EGFR L858R; format: cell-based; conditions: engineered NIH/3T3 cells, read-out: NIH3T3 IC50 (μM) EGFR (L858R)
Sequence of human EGFR L858R (NIH/3T3 cells) (P00533 25-1210 L858R): as above
Procedure, shortened: as §2

[3] = target: human EGFR L858R/T790M (NIH/3T3 cells) (Homo sapiens, UniProt P00533, L858R/T790M); assay: EGFR target modulation in engineered NIH/3T3 cell lines (phospho-EGFR Y1068 AlphaLISA), EGFR L858R/T790M; format: cell-based; conditions: engineered NIH/3T3 cells, read-out: NIH3T3 IC50 (μM) EGFR (L858R/T790M)
Procedure, shortened: as §2

HCC827 (Del E746-A750) = HCC827 (Del E746-A750) (Homo sapiens, UniProt P00533, DEL746-750); assay: EGFR target modulation in HCC827 cell line (phospho-EGFR Y1173 ELISA); format: cell-based
Sequence of HCC827 (Del E746-A750) (P00533 with tags, fused parts or gaps DEL746-750): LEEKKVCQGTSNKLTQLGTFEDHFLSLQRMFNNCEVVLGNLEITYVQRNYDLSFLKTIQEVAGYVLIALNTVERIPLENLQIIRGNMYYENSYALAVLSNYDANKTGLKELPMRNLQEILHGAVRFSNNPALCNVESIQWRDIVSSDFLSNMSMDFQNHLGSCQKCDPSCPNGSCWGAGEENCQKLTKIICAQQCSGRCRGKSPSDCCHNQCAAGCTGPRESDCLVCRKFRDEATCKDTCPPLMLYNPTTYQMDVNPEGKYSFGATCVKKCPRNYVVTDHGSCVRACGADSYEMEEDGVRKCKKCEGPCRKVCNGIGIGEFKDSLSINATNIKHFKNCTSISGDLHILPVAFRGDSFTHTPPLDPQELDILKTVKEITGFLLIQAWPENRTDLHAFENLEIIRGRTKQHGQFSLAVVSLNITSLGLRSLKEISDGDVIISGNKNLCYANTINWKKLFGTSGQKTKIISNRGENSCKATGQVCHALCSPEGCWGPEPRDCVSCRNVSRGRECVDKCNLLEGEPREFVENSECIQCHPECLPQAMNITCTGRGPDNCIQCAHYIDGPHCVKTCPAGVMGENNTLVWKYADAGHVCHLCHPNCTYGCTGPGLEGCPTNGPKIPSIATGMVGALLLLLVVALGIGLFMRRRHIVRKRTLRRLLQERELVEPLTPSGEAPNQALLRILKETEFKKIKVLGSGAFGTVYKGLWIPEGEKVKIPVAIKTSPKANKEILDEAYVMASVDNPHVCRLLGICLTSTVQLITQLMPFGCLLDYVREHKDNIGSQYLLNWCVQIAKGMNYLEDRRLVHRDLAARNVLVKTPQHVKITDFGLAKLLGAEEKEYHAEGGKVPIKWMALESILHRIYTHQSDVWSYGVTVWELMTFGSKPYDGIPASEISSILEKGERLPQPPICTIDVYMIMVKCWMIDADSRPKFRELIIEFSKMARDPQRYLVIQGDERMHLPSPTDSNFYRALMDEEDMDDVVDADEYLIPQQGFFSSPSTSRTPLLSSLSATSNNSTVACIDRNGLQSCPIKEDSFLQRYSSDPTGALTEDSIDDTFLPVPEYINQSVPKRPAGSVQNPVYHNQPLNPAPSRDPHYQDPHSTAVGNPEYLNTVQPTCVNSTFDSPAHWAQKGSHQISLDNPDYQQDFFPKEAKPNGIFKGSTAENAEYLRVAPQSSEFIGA
Experimental: EGFR Target Modulation in H1975, H3255 and HCC827 Cell Lines Tissue Culture. Cells were maintained in 10% FBS/RPMI supplemented with 100 μg/ml Penicillin/Streptomycin (Hyclone #SH30236.01). […] The cells were allowed to incubate overnight in a 37° C., 5% CO2 humidified tissue culture incubator. […] The serial diluted compounds were transferred to the plate containing cells by using a 50 nl Pin Head device (Perkin Elmer) and the cells were placed back in the incubator for 3 hours. Phospho-EGFR ([…]) Target Modulation Assay. The media was reduced to 20 ul using a Bio-Tek ELx 405 SelectTM plate washer. […] The plates were shaken at 4° C. for 20 minutes. An aliquot of 25 ul from each well was transferred to pEGFR(Y1173) ELISA plates for analysis. Phospho-EGFR ([…]) ELISA. Solid white high-binding ELISA plates (Greiner #781074) were coated with 5 ug/ml anti-EGFR capture antibody (R&D Systems #AF231) overnight in 50 mM carbonate/bicarbonate pH 9.5 buffer. Plates were blocked with 1% BSA (Sigma #A7030) in PBS for 1 hour at room temperature. Wash steps were carried out with a Bio-Tek ELx405 SelectTM using 4 cycles of 100 ul TBS-T (20 mM Tris, 137 mM NaCl, 0.05% Tween-20) per well. […] Lysis was allowed to occur for 20 minutes on ice. A 25 ul aliquot was added to each well of the blocked ELISA plate and incubated overnight at 4° C. with gentle shaking. […] After washing, 1:2,000 anti-rabbit-HRP (Cell Signaling #7074) in 0.2% BSA/TBS-T was added and incubated for 1 hour at room temperature. Chemiluminescent detection was carried out with SuperSignal ELISA Pico substrate (ThermoScientific #37069). Signal was read on EnVision plate reader using built-in UltraLUM setting. Data Analysis. Control cells treated with EGF were set to 100% maximum response. […] With these parameters, the IC50's for each compound in each cell line was calculated using non-linear curve fitting analysis.

HEKn (EGFR WT) = HEKn (EGFR WT) (Homo sapiens, UniProt P00533); assay: EGFR target modulation in HEKn (EGFR-WT) cell line (phospho-EGFR Y1173 ELISA); format: cell-based; conditions: value outside parentheses
Procedure, shortened: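 Read-out was Y1173 phosphorylation, measured by chemiluminescent ELISA with anti-EGFR capture of lysates. HEKn keratinocytes (wild-type EGFR) were treated with compound for 3 h.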

[4] = EGFR (L858R/T790M) with 90 min pre-incubation, read-out: IC50 (μM) Column B
[5] = EGFR (L858R/T790M) with no pre-incubation, read-out: IC50 (μM) Column A

T1 sequence (P00533 669-1210 T790M/L858R): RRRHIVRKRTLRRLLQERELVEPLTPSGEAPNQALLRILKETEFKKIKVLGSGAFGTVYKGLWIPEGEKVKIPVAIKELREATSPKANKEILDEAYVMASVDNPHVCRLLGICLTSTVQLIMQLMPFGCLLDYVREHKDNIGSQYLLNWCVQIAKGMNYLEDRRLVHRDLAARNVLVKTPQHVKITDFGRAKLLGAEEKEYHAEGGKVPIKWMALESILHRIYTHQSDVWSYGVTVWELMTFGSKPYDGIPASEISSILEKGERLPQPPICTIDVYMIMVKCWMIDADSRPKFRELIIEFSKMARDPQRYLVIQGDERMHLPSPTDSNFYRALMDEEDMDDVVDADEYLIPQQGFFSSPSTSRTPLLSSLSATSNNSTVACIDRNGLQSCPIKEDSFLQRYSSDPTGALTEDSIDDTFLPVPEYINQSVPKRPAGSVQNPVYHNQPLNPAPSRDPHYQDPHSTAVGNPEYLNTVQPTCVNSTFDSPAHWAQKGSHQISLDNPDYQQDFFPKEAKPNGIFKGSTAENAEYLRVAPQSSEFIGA

Compound	IC50 (EGFR(L858R/T790M); [4])	IC50 (EGFR(L858R/T790M); [5])	IC50 (H1975 (EGFR L858/T790M))	IC50 (H3255 (EGFR L858R))	IC50 (HaCaT (EGFR WT))	IC50 [1]	IC50 [2]	IC50 [3]	IC50 (HCC827 (Del E746-A750))	IC50 (HEKn (EGFR WT))
Cc1cc(C(=O)Nc2nc3cccc(Cl)c3n2[C@@H]2CCCCN(C(=O)/C=C/CNC(C)(C)C)C2)ccn1 [Example 17-191]	< 0.001 µM	0.004 µM	2 nM	3 nM	0.059 µM					
Cc1cc(C(=O)Nc2nc3cccc(Cl)c3n2[C@@H]2CCCCN(C(=O)/C=C/CN(C3CC3)C3CC3)C2)ccn1 [Example 16, (R,E)-N-(7-chloro-1-(1-(4-(dicyclopropylamino)but-2-enoyl)azepan-3-yl)-1H-benzo[d]imidazol-2-yl)-2-methylisonicotinamide]	0.005 µM	0.045 µM	58 nM	60 nM	1.1 µM					
CN(C)C/C=C/C(=O)N1CCCCC(n2c(NC(=O)c3ccnc(P(C)(C)=O)c3)nc3cccc(Cl)c32)C1 (single isomer, unassigned) [Example 21-10A]	0.572 µM	6.05 µM	> 10000 nM	1540 nM	> 10 µM					
C=CC(=O)N1CCN(C(=O)OC(C)(C)C)CC(n2c(NC(=O)c3ccnc(C)c3)nc3cccc(Cl)c32)C1 (stereo not drawn) [Example 12, tert-butyl 4-acryloyl-6-(7-chloro-2-(2-methylisonicotinamido)-1H-benzo[d]imidazol-1-yl)-1,4-diazepane-1-carboxylate]	0.016 µM	0.271 µM	50 nM	111 nM	> 10 µM					
Cc1cc(C(=O)Nc2nc3cccc(Cl)c3n2[C@@H]2CCCCN(C(=O)/C=C/CN(C)C(=O)OC(C)(C)C)C2)ccn1 [Example 17-184]	5.84 µM	16.1 µM	3740 nM	4840 nM	> 10 µM					
Cc1cc(C(=O)Nc2nc3cccc(Cl)c3n2[C@@H]2CCCCN(C(=O)C3=CCN(C)CC3)C2)ccn1 [Example 3-17]	1.2 µM	0.676 µM	3480 nM	6400 nM	> 10 µM					
Cc1cc(C(=O)Nc2nc3cccc(Cl)c3n2[C@@H]2CCCCN(C(=O)/C=C/CN3CC(F)C3)C2)ccn1 [Example 2, (R,E)-N-(7-chloro-1-(1-(4-(3-fluoroazetidin-1-yl)but-2-enoyl)azepan-3-yl)-1H-benzo[d]imidazol-2-yl)-2-methylisonicotinamide]	< 0.001 µM	0.01 µM	10 nM	15 nM		0.183 µM	0.008 µM	0.011 µM	< 1 nM	0.91 µM
C=CC(=O)N1CCC[C@@H](n2c(NC(=O)c3cccc(C(F)(F)F)c3)nc3cc(CN4CCCC4)ccc32)C1 [Example 17-117]	0.004 µM	0.036 µM	13 nM	290 nM		6.4 µM	0.05 µM	0.006 µM	243 nM	> 10 µM
C=CC(=O)N1CCCC[C@@H](n2c(NC(=O)c3cccc(C(F)(F)F)c3)nc3cccc(C(F)(F)F)c32)C1 [Example 17-12]	0.003 µM	0.064 µM	10 nM	147 nM		4.4 µM	0.052 µM	0.008 µM	30 nM	> 10 µM
C=CC(=O)N1CCC[C@@H](n2c(NC(=O)c3cccc(C(F)(F)F)c3)nc3cc(CN4CCOCC4)ccc32)C1 [Example 17-112]	0.003 µM	0.04 µM	15 nM	155 nM		> 10 µM	0.04 µM	0.006 µM	135 nM	> 10 µM
C=CC(=O)N1CCC[C@@H](n2c(NC(=O)c3cccc(C(F)(F)F)c3)nc3cc(COC)ccc32)C1 [Example 17-122]	< 0.001 µM	0.062 µM	16 nM	390 nM		> 10 µM	0.176 µM	0.02 µM	90 nM	> 10 µM
Cc1cc(C(=O)Nc2nc3cccc(Cl)c3n2[C@@H]2CCCCN(C(=O)/C=C/CN3CCCC3)C2)ccn1 [Example 1, (R,E)-N-(7-chloro-1-(1-(4-(pyrrolidin-1-yl)but-2-enoyl)azepan-3-yl)-1H-benzo[d]imidazol-2-yl)-2-methylisonicotinamide]	< 0.001 µM	0.007 µM	8 nM	12 nM		0.152 µM	0.004 µM	0.004 µM	2 nM	0.45 µM
